“And” between values parts separate entries of the source, which are not always exact repeats. Equal values may be shown once. Read-outs that look alike come from different tables or passages of the source.
Experiments:
Assay in all cases: Chemosensitivity, 96 h continuous exposure, MTT assay
Assay type in all cases: cell-based, human
MiaPaCa2 = test system: MiaPaCa2
Summary of the method: (§1)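 Cells were seeded overnight at 37 °C (2 × 10^3/well; GBM1 at 3 × 10^3/well on poly-L-ornithine/laminin in Neurobasal with hFGF/rhEGF), then exposed to compound concentration ranges for 96 h. Viability was read by MTT (4 h, formazan in DMSO, A540) and IC50 taken from dose–response curves.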

HT-29 = test system: HT-29
Summary of the method: as §1

PSN1 = test system: PSN1
Summary of the method: (§2)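 IC50 is the concentration giving 50% growth reduction, derived from dose-response curves of MTT absorbance at 540 nm. Before dosing, lines were plated at 2 × 10^3 cells/well, GBM1 stem-like cells at 3 × 10^3/well, overnight at 37 °C; compound exposure lasted 96 h without interruption, vehicle 0.2% DMSO.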

MCF10A non-cancer cells = test system: MCF10A non-cancer cells
Summary of the method: as §1

ARPE-19 non-cancer cells = test system: ARPE-19 non-cancer cells
Summary of the method: as §1

H460 = test system: H460
Summary of the method: as §2

BxPC3 = test system: BxPC3
Summary of the method: as §1

## O=P([O-])([O-])Oc1ccccc1.[Cu+2].[Cu+2].[Cu+2].c1ccc(-c2csc(NCCN(CCNc3nc(-c4ccccn4)cs3)CCNc3nc(-c4ccccn4)cs3)n2)nc1.c1ccc(-c2csc(NCCN(CCNc3nc(-c4ccccn4)cs3)CCNc3nc(-c4ccccn4)cs3)n2)nc1 [[L2Cu3(O3POPh)]4+]
MiaPaCa2; IC50 ARPE-19 / IC50 MiaPaCa2
  Selectivity index (ARPE19): 2.44
MiaPaCa2; IC50 MCF10A / IC50 MiaPaCa2
  Selectivity index (MCF10A): 1.09
MiaPaCa2; MiaPaCa2, mean of replicates, read-out: Mean IC50
  IC50: 47.2 µM
MiaPaCa2; MiaPaCa2, read-out: Mean IC50 values
  IC50: 47.2 µM
MiaPaCa2; MiaPaCa2, single replicate, read-out: IC50 values for each replicate
  IC50: 50.1 µM and 44.3 µM and 47.1 µM
MiaPaCa2; ratio of IC50, MiaPaCa2
  Relative potency (+ anion to no anion), Ratio + anion:no anion: 4.00
MiaPaCa2; ratio of SI (ARPE-19), MiaPaCa2
  Selectivity indices relative to ARPE-19, Ratio + anion:no anion: 0.548
MiaPaCa2; ratio of SI (MCF 10A), MiaPaCa2
  Selectivity indices relative to MCF10A, Ratio + anion:no anion: 0.267
HT-29; HT29, mean of replicates, read-out: Mean IC50
  IC50: 0.695 µM
HT-29; HT29, read-out: Mean IC50 values
  IC50: 0.695 µM
HT-29; HT-29, single replicate, read-out: IC50 values for each replicate
  IC50: 0.687 µM and 0.844 µM and 0.642 µM and 0.195 µM and 1.59 µM and 0.213 µM
HT-29; IC50 ARPE-19 / IC50 HT29
  Selectivity index (ARPE19): 165.81
HT-29; IC50 MCF10A / IC50 HT29
  Selectivity index (MCF10A): 74.07
HT-29; ratio of IC50, HT29
  Relative potency (+ anion to no anion), Ratio + anion:no anion: 3.25
HT-29; ratio of SI (ARPE-19), HT29
  Selectivity indices relative to ARPE-19, Ratio + anion:no anion: 0.674
HT-29; ratio of SI (MCF 10A), HT29
  Selectivity indices relative to MCF10A, Ratio + anion:no anion: 0.328
PSN1; IC50 ARPE-19 / IC50 PSN1
  Selectivity index (ARPE19): 536.00
PSN1; IC50 MCF10A / IC50 PSN1
  Selectivity index (MCF10A): 239.43
PSN1; PSN1, mean of replicates, read-out: Mean IC50
  IC50: 0.215 µM
PSN1; PSN1, read-out: Mean IC50 values
  IC50: 0.215 µM
PSN1; PSN1, single replicate, read-out: IC50 values for each replicate
  IC50: 0.195 µM and 0.219 µM and 0.229 µM
PSN1; ratio of IC50, PSN1
  Relative potency (+ anion to no anion), Ratio + anion:no anion: 0.0333
PSN1; ratio of SI (ARPE-19), PSN1
  Selectivity indices relative to ARPE-19, Ratio + anion:no anion: 65.686
PSN1; ratio of SI (MCF 10A), PSN1
  Selectivity indices relative to MCF10A, Ratio + anion:no anion: 32.009
MCF10A non-cancer cells; MCF10A non-cancer, read-out: Mean IC50 values
  IC50: 51.5 µM
MCF10A non-cancer cells; MCF10A, mean of replicates, read-out: Mean IC50
  IC50: 51.5 µM
MCF10A non-cancer cells; MCF10A, single replicate, read-out: IC50 values for each replicate
  IC50: 60.2 µM and 49 µM and 54.9 µM and 41.9 µM
MCF10A non-cancer cells; ratio of IC50, MCF10A
  Relative potency (+ anion to no anion), Ratio + anion:no anion: 1.07
ARPE-19 non-cancer cells; ARPE-19, mean of replicates, read-out: Mean IC50
  IC50: 115 µM
ARPE-19 non-cancer cells; ARPE-19, single replicate, read-out: IC50 values for each replicate
  IC50: 179 µM and 157 µM and 60.7 µM and 64.1 µM
ARPE-19 non-cancer cells; ARPE-19 non-cancer, read-out: Mean IC50 values
  IC50: 115 µM
ARPE-19 non-cancer cells; ratio of IC50, ARPE-19
  Relative potency (+ anion to no anion), Ratio + anion:no anion: 2.19
H460; H460, mean of replicates, read-out: Mean IC50
  IC50: 0.198 µM
H460; H460, read-out: Mean IC50 values
  IC50: 0.198 µM
H460; H460, single replicate, read-out: IC50 values for each replicate
  IC50: 0.122 µM and 0.234 µM and 0.163 µM and 0.228 µM and 0.245 µM
H460; IC50 ARPE-19 / IC50 H460
  Selectivity index (ARPE19): 582.02
H460; IC50 MCF10A / IC50 H460
  Selectivity index (MCF10A): 259.98
H460; ratio of IC50, H460
  Relative potency (+ anion to no anion), Ratio + anion:no anion: 0.72
H460; ratio of SI (ARPE-19), H460
  Selectivity indices relative to ARPE-19, Ratio + anion:no anion: 3.052
H460; ratio of SI (MCF 10A), H460
  Selectivity indices relative to MCF10A, Ratio + anion:no anion: 1.487
BxPC3; BXPC3, mean of replicates, read-out: Mean IC50
  IC50: 51.9 µM
BxPC3; BXPC3, read-out: Mean IC50 values
  IC50: 39.5 µM
BxPC3; BXPC3, single replicate, read-out: IC50 values for each replicate
  IC50: 59.3 µM and 58.6 µM and 40.8 µM and 47.6 µM and 53 µM
BxPC3; IC50 ARPE-19 / IC50 BXPC3
  Selectivity index (ARPE19): 2.92
BxPC3; IC50 MCF10A / IC50 BXPC3
  Selectivity index (MCF10A): 1.30
BxPC3; ratio of IC50, BXPC3
  Relative potency (+ anion to no anion), Ratio + anion:no anion: 134.82
BxPC3; ratio of SI (ARPE-19), BXPC3
  Selectivity indices relative to ARPE-19, Ratio + anion:no anion: 0.016
BxPC3; ratio of SI (MCF 10A), BXPC3
  Selectivity indices relative to MCF10A, Ratio + anion:no anion: 0.008

Source: PMC8222254, “Self-assembly of an anion receptor with metal-dependent kinase inhibition and potent in vitro anti-cancer properties” (Nature Communications, 2021)
